In US20140235578A1, “METHODS FOR TREATING NEOPLASIA AND FOR IDENTIFYING COMPOSITIONS USEFUL IN SUCH THERAPY” (priority 2007, published 2014):
Where a SMILES comes first, the peptide text is derived from it. The star is where a group is joined. Cbz = O=C(OCc1ccccc1)*

Key:
SV40-transformed MEFs = test: Plasmid integration assay; format: cell-based, mouse; conditions: 2 μM, added 30 min prior to and during transfection
Procedure: Transformed top2β^+/Δ2 and top2β^Δ2/Δ2 MEFs were plated in six-well plates (4×10^5 cellsper well) one day prior to transfection. Transfection was performed with EcoRI-linearized pUCSV-BSD plasmid (containing the blasticidin resistance gene) using the Cellfectin (Invitrogen) transfection reagent (0.1 μg DNA+2 μl Cellfectin). VP-16 was added at the time of transfection. After 6 hr, cells were washed and trypsinized. A small aliquot was removed, reseeded into fresh medium and grown without the selection agent for survival determination. The rest of the cells were reseeded into fresh medium in a 10 cm plate. After 24 hr, the selection agent blasticidin (3 μg/ml) was added. Colonies were stained with methylene blue and counted after 10 days. Where indicated, the proteasome inhibitor MG132 (2 μM) was added 30 min prior to and during transfection. Integration frequency was determined as the ratio of the number of blasticidin-resistant colonies and the number of surviving cells.

H9C2 cardiomyocytes = format: cell-based
Procedure: Vitamin C and NAC were added 30 min prior to doxorubicin. Cell lysates were then analyzed by Western blotting using anti-γ-H2AX or anti-α-tubulin antibody. […] Cell lysates were then analyzed by Western blotting (upper panel) using anti-γ-H2AX or anti-α-tubulin antibody. Quantification of γ-H2AX signals is shown in the lower panel. C, H9C2 cells were treated with 0.1% DMSO (labeled DMSO), bortezomib (1 μM) or MG132 (4 μM) for 30 min, followed by co-treatment with either 0.1% DMSO (labeled control) or 0.5 μM doxorubicin (labeled Doxo) for 1.5 hrs. Neutral comet assay was then performed as described in Materials and Methods. The average comet tail moments were plotted as histograms (mean±SEM). *p-value<0.001, t-test.
The amount of Top2 cleavage complexes was measured by a band depletion assay as described in Materials and Methods. Cells were lysed either immediately or after reversal of the Top2 cleavage complexes (labeled R+250). Cell lysates were analyzed by Western blotting using anti-Top2α/Top2β or anti-α-tubulin antibody. […] Cells were then lysed and protein levels of Top2α, and Top2β isozymes were determined by Western blotting. […] Cell lysates were immunoblotted using anti-Top2β antibody. D, H9C2 cells were treated with ICRF187 (100 μM) for 4 hrs, followed by treatment with doxorubicin (Doxo, 0, 0.5 and 1 μM) for 1.5 hrs. […]

MEFs = test: Neutral comet assay of VP-16-induced DSBs; format: cell-based, mouse; conditions: co-treatment, data not shown
Procedure: Both wild type and Top2β knockout mouse embryonic fibroblasts (MEFs) were treated with either DMSO (solvent control) or VP-16 (250 μM) for 90 min, followed by incubated in drug-free media for 30 min. Neutral comet assay was then performed. Tail moment (average from 100 cells) was determined for each treatment.

Top2α = target: T1, Top2α (Rattus norvegicus, UniProt P41516); test: Top2α protein level by Western blotting in H9C2 cells; format: cell-based; conditions: 100 μM, 0-6 hrs
T1 construct: endogenous in cells; host or cells: H9C2 cardiomyocytes
T1 sequence (P41516 whole entry): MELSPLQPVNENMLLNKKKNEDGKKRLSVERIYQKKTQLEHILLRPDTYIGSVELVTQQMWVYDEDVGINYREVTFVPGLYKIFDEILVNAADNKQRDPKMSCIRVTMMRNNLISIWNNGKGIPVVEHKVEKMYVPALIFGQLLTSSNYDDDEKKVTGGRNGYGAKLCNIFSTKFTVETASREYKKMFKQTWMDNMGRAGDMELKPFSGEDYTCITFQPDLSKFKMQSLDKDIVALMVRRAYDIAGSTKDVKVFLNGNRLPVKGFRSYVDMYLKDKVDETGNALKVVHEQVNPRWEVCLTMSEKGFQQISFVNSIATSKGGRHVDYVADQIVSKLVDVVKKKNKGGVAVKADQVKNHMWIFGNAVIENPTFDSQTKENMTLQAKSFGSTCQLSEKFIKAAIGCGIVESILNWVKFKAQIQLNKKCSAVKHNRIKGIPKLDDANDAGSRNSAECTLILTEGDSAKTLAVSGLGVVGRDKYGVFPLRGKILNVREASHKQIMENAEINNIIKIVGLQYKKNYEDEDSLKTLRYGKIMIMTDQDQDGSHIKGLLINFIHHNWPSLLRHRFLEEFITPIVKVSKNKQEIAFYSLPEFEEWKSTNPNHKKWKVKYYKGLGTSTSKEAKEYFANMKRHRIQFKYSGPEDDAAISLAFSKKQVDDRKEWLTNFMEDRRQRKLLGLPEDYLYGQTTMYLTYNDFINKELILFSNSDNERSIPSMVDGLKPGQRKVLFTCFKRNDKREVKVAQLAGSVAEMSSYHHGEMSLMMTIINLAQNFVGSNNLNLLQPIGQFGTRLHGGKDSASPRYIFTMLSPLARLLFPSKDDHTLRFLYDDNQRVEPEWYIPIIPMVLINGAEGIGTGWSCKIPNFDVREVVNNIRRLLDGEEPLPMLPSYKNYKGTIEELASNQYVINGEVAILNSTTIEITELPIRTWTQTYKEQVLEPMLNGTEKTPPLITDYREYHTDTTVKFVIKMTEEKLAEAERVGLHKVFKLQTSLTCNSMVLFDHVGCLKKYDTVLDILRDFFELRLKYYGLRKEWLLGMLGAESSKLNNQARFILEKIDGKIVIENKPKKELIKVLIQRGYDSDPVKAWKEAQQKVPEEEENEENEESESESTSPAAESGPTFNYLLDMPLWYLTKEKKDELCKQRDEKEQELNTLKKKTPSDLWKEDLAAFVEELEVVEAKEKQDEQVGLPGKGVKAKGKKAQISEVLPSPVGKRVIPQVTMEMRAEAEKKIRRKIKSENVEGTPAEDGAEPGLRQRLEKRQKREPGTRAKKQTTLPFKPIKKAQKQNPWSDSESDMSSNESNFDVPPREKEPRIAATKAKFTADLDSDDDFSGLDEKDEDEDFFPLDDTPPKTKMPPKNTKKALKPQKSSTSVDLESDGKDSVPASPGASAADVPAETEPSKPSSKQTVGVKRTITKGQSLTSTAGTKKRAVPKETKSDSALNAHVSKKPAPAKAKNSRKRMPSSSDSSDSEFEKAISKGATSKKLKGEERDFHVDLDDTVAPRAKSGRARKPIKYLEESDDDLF
Procedure: (§1) The amount of Top2 cleavage complexes was measured by a band depletion assay as described in Materials and Methods. Cells were lysed either immediately or after reversal of the Top2 cleavage complexes (labeled R+250). Cell lysates were analyzed by Western blotting using anti-Top2α/Top2β or anti-α-tubulin antibody. […] Cells were then lysed and protein levels of Top2α, and Top2β isozymes were determined by Western blotting. […] Cell lysates were immunoblotted using anti-Top2β antibody. D, H9C2 cells were treated with ICRF187 (100 μM) for 4 hrs, followed by treatment with doxorubicin (Doxo, 0, 0.5 and 1 μM) for 1.5 hrs. Neutral comet assay was then performed as described in Materials and Methods. The average comet tail moments were plotted as histograms (mean±SEM). * p-value<0.001, t-test.

Top2β = Top2β protein level by Western blotting in H9C2 cells; format: cell-based; conditions: 100 μM, 0-6 hrs
Procedure: as §1

SMILES	effect on VP-16-stimulated plasmid integration (SV40-transformed MEFs)	effect on doxorubicin-induced comet tail moment (H9C2 cardiomyocytes)	effect on VP-16-induced DSBs (MEFs)	level of the Top2α isozyme (Top2α)	protein level of Top2β (Top2β)
CC(C)C[C@@H](C=O)NC(=O)[C@H](CC(C)C)NC(=O)[C@H](CC(C)C)NC(=O)OCc1ccccc1 [MG132, N-[(Phenylmethoxy)carbonyl]-L-leucyl-N-[(1S)-1-formyl-3-methylbutyl]-L-leucinamide] (Cbz-Leu-Leu-Leu-aldehyde)	blocks	significantly reduced	abolish	–	–
C[C@@H](CN1CC(=O)NC(=O)C1)N1CC(=O)NC(=O)C1 [dexrazoxane]	–	–	–	no significant effect	time-dependent disappearance
